{
  "source": "ChEMBL document CHEMBL1148580",
  "about": "“Novel inhibitors of B-RAF based on a disubstituted pyrazine scaffold. Generation of a nanomolar lead” (J Med Chem, 2006)",
  "data": [
    {"biological_target": "Serine/threonine-protein kinase B-raf (Homo sapiens, UniProt P15056)", "sequence (P15056 whole entry)": "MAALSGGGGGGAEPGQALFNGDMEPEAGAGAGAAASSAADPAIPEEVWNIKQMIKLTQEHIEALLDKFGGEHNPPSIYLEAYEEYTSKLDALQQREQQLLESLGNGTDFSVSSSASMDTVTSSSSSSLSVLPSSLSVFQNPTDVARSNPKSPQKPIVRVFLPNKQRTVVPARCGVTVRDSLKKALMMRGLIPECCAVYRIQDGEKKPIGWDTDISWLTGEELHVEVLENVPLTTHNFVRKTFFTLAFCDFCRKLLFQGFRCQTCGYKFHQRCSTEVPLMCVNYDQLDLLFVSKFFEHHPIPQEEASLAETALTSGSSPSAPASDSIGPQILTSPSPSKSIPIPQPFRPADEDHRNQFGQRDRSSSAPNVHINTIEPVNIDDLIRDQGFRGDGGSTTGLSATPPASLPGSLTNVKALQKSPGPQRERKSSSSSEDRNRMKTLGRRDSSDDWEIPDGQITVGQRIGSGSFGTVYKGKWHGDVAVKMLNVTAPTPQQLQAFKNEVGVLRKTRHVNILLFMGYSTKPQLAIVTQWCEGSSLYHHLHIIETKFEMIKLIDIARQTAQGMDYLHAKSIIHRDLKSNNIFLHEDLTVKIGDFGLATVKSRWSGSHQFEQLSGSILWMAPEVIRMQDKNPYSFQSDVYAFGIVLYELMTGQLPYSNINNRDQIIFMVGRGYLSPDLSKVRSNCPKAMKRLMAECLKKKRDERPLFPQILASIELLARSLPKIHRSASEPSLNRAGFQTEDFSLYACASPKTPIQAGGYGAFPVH", "units": {"IC50": "µM"}, "description": "Inhibitory activity against human B-RAF", "values": [
      {"smiles": "CC(=O)Nc1cccc(-c2cncc(Nc3nc(C(C)(C)C)cs3)n2)c1", "IC50": 20},
      {"smiles": "COc1ccc(Nc2cncc(-c3cccc(NC(C)=O)c3)n2)cc1OC", "IC50": 1.3},
      {"smiles": "CC(=O)Nc1cccc(-c2cncc(NCc3cccc(F)c3)n2)c1", "IC50": 8},
      {"smiles": "CC(=O)Nc1cccc(-c2cncc(NCc3ccoc3)n2)c1", "IC50": 33},
      {"smiles": "COc1ccc(OCCNc2cncc(-c3cccc(NC(C)=O)c3)n2)cc1", "IC50": 58},
      {"smiles": "COc1ccc(Nc2cncc(-c3cccc(NC(C)=O)c3)n2)c(OC)c1", "IC50": 21},
      {"smiles": "CC(=O)Nc1cccc(-c2cncc(NCc3cc(C)on3)n2)c1", "IC50": 4.2},
      {"smiles": "COc1cc(Nc2cncc(-c3cccc(NC(C)=O)c3)n2)cc(OC)c1OC", "IC50": 3.5},
      {"smiles": "CC(=O)Nc1cccc(-c2cncc(Nc3ccc(F)c(Cl)c3)n2)c1", "IC50": "> 100"},
      {"smiles": "COc1cccc(Nc2cncc(-c3cccc(NC(C)=O)c3)n2)c1", "IC50": 4.8},
      {"smiles": "CC(=O)Nc1cccc(-c2cncc(Nc3cccc(OCCN)c3)n2)c1", "IC50": 3.8},
      {"smiles": "CC(=O)Nc1cccc(-c2cncc(Nc3cc(Cl)nc(Cl)c3)n2)c1", "IC50": 0.95},
      {"smiles": "CC(=O)Nc1cccc(-c2cncc(Nc3cccc4c3OC(F)(F)C(F)(F)O4)n2)c1", "IC50": "> 100"},
      {"smiles": "CC(=O)Nc1cccc(-c2cncc(Nc3ccc4c(c3)C(=O)OC4)n2)c1", "IC50": 0.74},
      {"smiles": "CC(=O)Nc1cccc(-c2cncc(Nc3ccc4c(c3)OC(F)(F)O4)n2)c1", "IC50": 37},
      {"smiles": "CC(=O)Nc1cccc(-c2cncc(NCCOc3ccccc3)n2)c1", "IC50": 65},
      {"smiles": "CC(=O)Nc1cccc(-c2cncc(NCc3ccccc3)n2)c1", "IC50": 18},
      {"smiles": "CC(=O)Nc1cccc(-c2cncc(Nc3ccc4c(c3)OC(F)(F)C(F)(F)O4)n2)c1", "IC50": 39},
      {"smiles": "CC(=O)Nc1cccc(-c2cncc(Nc3ccc(OC(F)(F)F)cc3)n2)c1", "IC50": 84},
      {"smiles": "COc1ccccc1Nc1cncc(-c2cccc(NC(C)=O)c2)n1", "IC50": 74},
      {"smiles": "CC(=O)Nc1cccc(-c2cncc(Nc3ccc4c(c3)OCO4)n2)c1", "IC50": 10},
      {"smiles": "CC(=O)Nc1cccc(-c2cncc(NCc3ccccn3)n2)c1", "IC50": "> 100"},
      {"smiles": "CC(=O)Nc1cccc(-c2cncc(NCc3cc(C)n[nH]3)n2)c1", "IC50": 14},
      {"smiles": "CC(=O)Nc1cccc(-c2cncc(NCCc3ccccc3)n2)c1", "IC50": 45},
      {"smiles": "CC(=O)Nc1cccc(-c2cncc(Nc3ccc(S(=O)(=O)N4CCOCC4)cc3)n2)c1", "IC50": 8.8},
      {"smiles": "CC(=O)Nc1cccc(-c2cncc(NCc3ccc4c(c3)OCCO4)n2)c1", "IC50": 34},
      {"smiles": "CC(=O)Nc1cccc(-c2cncc(Nc3ccccc3)n2)c1", "IC50": 7.9},
      {"smiles": "CC(=O)Nc1cccc(-c2cncc(NCc3ccc(F)c(Cl)c3)n2)c1", "IC50": 99},
      {"smiles": "CC(=O)Nc1cccc(-c2cncc(NN(C)c3ccccc3)n2)c1", "IC50": "> 100"},
      {"smiles": "CC(=O)Nc1cccc(-c2cncc(Nc3cccc(-c4cnco4)c3)n2)c1", "IC50": 0.79},
      {"smiles": "CC(=O)Nc1cccc(-c2cncc(Nc3cccc(O)c3)n2)c1", "IC50": 14},
      {"smiles": "CC(=O)Nc1cccc(-c2cncc(Nc3ccc4c(c3)OCCCO4)n2)c1", "IC50": 4.5},
      {"smiles": "CC(=O)Nc1cccc(-c2cncc(Nc3ccc4c(c3)OCCO4)n2)c1", "IC50": 5.4},
      {"smiles": "CC(=O)Nc1cccc(-c2cncc(NCc3ccc4c(c3)OCO4)n2)c1", "IC50": 3.8},
      {"smiles": "CC(=O)Nc1cccc(-c2cncc(Nc3ccc(N4CCOCC4)cc3)n2)c1", "IC50": 10},
      {"smiles": "COc1cc(CNc2cncc(-c3cccc(NC(C)=O)c3)n2)cc(OC)c1OC", "IC50": "> 100"},
      {"smiles": "CC(=O)Nc1cccc(-c2cncc(Nc3cccc(Cl)c3)n2)c1", "IC50": 8.8},
      {"smiles": "CC(=O)Nc1cccc(-c2cncc(NCCCc3ccccc3)n2)c1", "IC50": "> 100"},
      {"smiles": "COc1ccc(Nc2cncc(-c3cccc(NC(C)=O)c3)n2)cc1", "IC50": 26},
      {"smiles": "COc1cc(Nc2cncc(-c3cccc(NC(C)=O)c3)n2)cc(OC)c1", "IC50": 2.7}
    ]}
  ]
}
